Key:
[1] = test system: HCV replicon cells; assay: HCV replicon FRET / luciferase assay; type: cell-based; conditions: Hepatitis C virus, 50% reduction in FRET or luciferase activity
Procedure: FRET Assay Preparation. The HCV FRET screening assay was performed in 96-well cell culture plates. The FRET peptide (Anaspec, Inc.) (Taliani et al., Anal. Biochem. 1996, 240, 60-67) contains a fluorescence donor, EDANS, near one end of the peptide and an acceptor, DABCYL, near the other end. The fluorescence of the peptide is quenched by […] resonance energy transfer (RET) between the donor and the acceptor, but as the NS3 protease cleaves the peptide the products are released from RET quenching and the fluorescence of the donor becomes apparent. The assay reagent was made as follows: 5× cell Luciferase cell culture lysis reagent from Promega (#E153A) diluted to 1× with dH2O, NaCl added to 150 mM final, the FRET peptide diluted to 20 μM final from a 2 mM stock.
To prepare plates, HCV replicon cells, with or without a Renilla luciferase reporter gene, were trypsinized and plated in a 96-well plate with titrated test compounds added in columns 3 through 12; columns 1 and 2 contained a control compound (HCV control inhibitor), and the bottom row contained cells with DMSO only. The plates were then placed in a CO2 incubator at 37° C.
Assays. Subsequent to addition of the test compounds described above (FRET Assay Preparation), at various times the plate was removed and Alamar blue solution (Trek Diagnostics, #00-100) was added to measure cellular toxicity. After reading in a Cytoflour 4000 instrument (PE Biosystems), plates were rinsed with PBS and then used for FRET assay by the addition of 30 ul of the FRET peptide assay reagent described above (FRET Assay Preparation) per well. The plate was then placed into the Cytoflour 4000 instrument which had been set to 340 excite/490 emission, automatic mode for up to 20 cycles and the plate read in a kinetic mode. Typically, the signal to noise using an endpoint analysis after the reads was at least three-fold. Alternatively, after Alamar blue reading, plates were rinsed with PBS, then used for luciferase assay using the Promega Dual-Glo Luciferase Assay System or the Promega EnduRen Live Cell Substrate assay.
Compound analysis was performed by quantification of the relative HCV replicon inhibition and the relative cytotoxicity values. To calculate cytoxicity values, the average Alamar Blue fluorescence signals from the control wells were set as 100% non-toxic. The individual signals in each of the compound test wells were then divided by the average control signal and multiplied by 100% to determine […]. To calculate the HCV replicon inhibition values, an average background value was obtained from the two wells containing the highest amount of HCV control inhibitor at the end of the assay period. These numbers were similar to those obtained from naïve Huh-7 cells. The background numbers were then subtracted from the average signal obtained from the control wells and this number was used as 100% activity. The individual signals in each of the compound test wells were then divided by the averaged control values after background subtraction and multiplied by 100% to determine percent activity. EC50 values were calculated as the concentration which caused a 50% reduction in FRET or luciferase activity. The two numbers generated for the compound plate, percent cytoxicity and percent activity, were used to determine compounds of interest for further analysis.

[2] = target: T1, HCV NS5B RdRp (Hepatitis C virus genotype 1b, UniProt Q9WMX2); assay: HCV NS5B RdRp enzyme assay; type: biochemical; conditions: HCV NS5B genotype 1b, standard or modified RdRp assay not given
T1 construct: The protein was expressed with an 18 amino acid C-terminal truncation to enhance the solubility; made in house; host or cells: E. coli BL21(DE3)
Procedure: HCV NS5B RdRp cloning, expression, and purification. The cDNA encoding the NS5B protein of HCV, genotype 1b, was cloned into the pET21a expression vector. The protein was expressed with an 18 amino acid C-terminal truncation to enhance the solubility. The E. coli competent cell line BL21(DE3) was used for expression of the protein. Cultures were grown at 37° C. for ˜4 hours until the cultures reached an optical density of 2.0 at 600 nm. The cultures were cooled to 20° C. and induced with 1 mM […]. Fresh ampicillin was added to a final concentration of 50 μg/ml and the cells were grown overnight at 20° C.
Cell pellets (3 L) were lysed for purification to yield 15-24 mgs of purified NS5B. The lysis buffer consisted of 20 mM Tris-HCl, pH 7.4, 500 mM NaCl, 0.5% triton X-100, 1 mM DTT, 1 mM EDTA, 20% glycerol, 0.5 mg/ml lysozyme, 10 mM MgCl2, 15 ug/ml deoxyribonuclease I, and Complete TM protease inhibitor tablets (Roche). After addition of the lysis buffer, frozen cell pellets were resuspended using a tissue homogenizer. To reduce the viscosity of the sample, aliquots of the lysate were sonicated on ice using a microtip attached to a Branson sonicator. The sonicated lysate was centrifuged at 100,000×g for 1 hr at 4° C. and filtered through a 0.2 μm filter unit (Corning).
The protein was purified using two sequential chromatography steps: Heparin sepharose CL-6B and polyU sepharose 4B (Pharmacia). The chromatography buffers were identical to the lysis buffer but contained no lysozyme, deoxyribonuclease I, MgCl2 or protease inhibitor and the NaCl concentration of the buffer was adjusted according to the requirements for charging the protein onto the column. Each column was eluted with a NaCl gradient which varied in length from 5-50 column volumes depending on the column type. After the final chromatography step, the resulting purity of the enzyme is >90% based on SDS-PAGE analysis. The enzyme was aliquoted and stored at −80° C.
Standard HCV NS5B RdRp enzyme assay. HCV RdRp genotype 1b assays were run in a final volume of 60 μl in 96 well plates (Corning 3600). The assay buffer is composed of 20 mM Hepes, pH 7.5, 2.5 mM KCl, 2.5 mM MgCl2, 1 mM DTT, 1.6 U RNAse inhibitor (Promega N2515), 0.01 mg/ml BSA (Sigma B6917), and 2% glycerol. All compounds were serially diluted (3-fold) in DMSO and diluted further in water such that the final concentration of DMSO in the assay was 2%. HCV RdRp genotype 1b enzyme was used at a final concentration of 28 nM. A polyA template was used at 6 nM, and a biotinylated oligo-dT12 primer was used at 180 nM final concentration. Template was obtained commercially (Amersham 27-4110). Biotinylated primer was prepared by Sigma Genosys. 3H-UTP was used at (0.29 μM total UTP). Reactions were initiated by the addition of enzyme, incubated at 30° C. for 60 min, and stopped by adding 25 μl of 50 mM EDTA containing SPA beads (4 μg/μl, Amersham RPNQ 0007). Plates were read on a Packard Top Count NXT after >1 hr incubation at room temperature.
Modified HCV NS5B RdRp enzyme assay. A modified enzyme assay was performed essentially as described for the standard enzyme assay except for the following: The biotinylated oligo dT12 primer was precaptured on streptavidin-coated SPA beads by mixing primer and beads in assay buffer and incubating at room temperature for one hour. Unbound primer was removed after centrifugation. The primer-bound beads were resuspended in 20 mM Hepes buffer, pH 7.5 and used in the assay at final concentrations of 20 nM primer and […] beads. Order of addition in the assay: enzyme (1.75 nM) was added to diluted compound followed by the addition of a mixture of template (0.36 nM), 3H-UTP (0.6 μCi, 0.29 μM), and primer-bound beads, to initiate the reaction; concentrations given are final. Reactions were allowed to proceed for 4 hours at 30° C.
IC50 values for compounds were determined using seven different [I]. […]

T1 sequence (Q9WMX2 2420-2992): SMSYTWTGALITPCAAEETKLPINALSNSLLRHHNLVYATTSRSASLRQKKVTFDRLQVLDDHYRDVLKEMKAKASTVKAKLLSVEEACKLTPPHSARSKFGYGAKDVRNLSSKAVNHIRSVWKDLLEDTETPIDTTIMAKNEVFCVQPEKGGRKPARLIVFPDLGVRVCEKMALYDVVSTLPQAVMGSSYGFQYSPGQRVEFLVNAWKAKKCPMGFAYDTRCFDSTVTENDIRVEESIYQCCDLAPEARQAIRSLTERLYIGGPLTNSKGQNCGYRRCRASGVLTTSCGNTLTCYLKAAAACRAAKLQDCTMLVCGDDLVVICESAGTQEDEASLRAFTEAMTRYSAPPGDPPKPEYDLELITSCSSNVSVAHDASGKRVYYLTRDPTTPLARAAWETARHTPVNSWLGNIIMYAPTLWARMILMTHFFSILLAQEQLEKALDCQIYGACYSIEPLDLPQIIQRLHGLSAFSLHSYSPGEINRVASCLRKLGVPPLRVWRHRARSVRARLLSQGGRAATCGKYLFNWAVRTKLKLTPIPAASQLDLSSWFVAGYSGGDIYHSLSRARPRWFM

SMILES | EC50 ([1]; class symbols) | IC50 ([2]; class symbols) | EC50 ([1]; numeric values) | IC50 ([2]; numeric values)
COc1ccc2c(c1)C1CC1(C(=O)N1CCCCC1c1nc(C(C)C)no1)Cn1c-2c(C2CCCCC2)c2ccc(C(=O)NS(=O)(=O)N(C)C)cc21 (stereo not drawn) | 2 to 500 nM | 2 to 500 nM | – | –
COc1ccc2c(c1)C1CC1(C(=O)N1CCC(c3nncn3C)CC1)Cn1c-2c(C2CCCCC2)c2ccc(C(=O)NS(=O)(=O)N(C)C)cc21 (stereo not drawn) | 2 to 500 nM | 2 to 500 nM | – | –
COc1ccc2c(c1)C=C(C(=O)N1CCCCC1c1nc(C(C)C)no1)Cn1c-2c(C2CCCCC2)c2ccc(C(=O)NS(=O)(=O)N(C)C)cc21 (stereo not drawn) | – | – | 1000 nM | 150 nM
